pEC50: −log10 of the molar value.
Each molecule was assayed against T1, recombinant human pancreatic GLK (Homo sapiens, UniProt P35557) (assay: biochemical).
T1 sequence (P35557 1-465): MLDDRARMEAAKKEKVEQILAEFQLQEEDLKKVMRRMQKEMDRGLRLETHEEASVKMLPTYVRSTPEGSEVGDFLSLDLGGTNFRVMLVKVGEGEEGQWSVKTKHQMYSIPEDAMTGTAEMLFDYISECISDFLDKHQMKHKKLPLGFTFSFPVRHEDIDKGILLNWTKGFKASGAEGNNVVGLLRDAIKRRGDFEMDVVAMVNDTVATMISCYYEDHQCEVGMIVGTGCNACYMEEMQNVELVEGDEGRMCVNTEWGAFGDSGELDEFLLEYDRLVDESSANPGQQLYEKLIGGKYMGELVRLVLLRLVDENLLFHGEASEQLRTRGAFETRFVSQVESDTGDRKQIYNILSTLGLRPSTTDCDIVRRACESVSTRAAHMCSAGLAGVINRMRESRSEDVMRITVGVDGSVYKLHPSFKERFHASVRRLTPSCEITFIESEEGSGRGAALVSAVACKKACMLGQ
`Cc1ccc(NC(=O)[C@@H](COC(C)C)Oc2ncnc3c2cnn3-c2ccccc2Cl)nc1` [Example 99, (2R)-2-(1-(2-chlorophenyl)-1H-pyrazolo[3,4-d]pyrimidin-4-yloxy)-3-isopropoxy-N-(5-methylpyridin-2-yl)propanamide] showed a pEC50 of 5.03. In the case of `CCC(Oc1ncnc2c1cnn2-c1ccccc1OC)C(=O)Nc1ccc(C)cn1` (stereo not shown) [Example 42, 2-{[1-(2-Methoxyphenyl)-1H-pyrazolo[3,4-d]pyrimidin-4-yl]oxy}-N-(5-methylpyridin-2-yl)butanamide], the pEC50 was 6.39. `CCOC[C@H](Oc1ncnc2c1cnn2-c1ncccc1Cl)C(=O)Nc1ccc(C#N)cn1` [Example 127c, (2S)-2-[1-(3-chloro-2-pyridyl)pyrazolo[4,5-e]pyrimidin-4-yl]oxy-N-(5-cyano-2-pyridyl)-3-ethoxy-propanamide] was tested, and the pEC50 was 6.17. For `Cc1ccc(F)cc1-n1ncc2c(O[C@@H](COCCO)C(=O)Nc3ccc(Cl)cn3)ncnc21` [Example 180, (2S)—N-(5-chloropyridin-2-yl)-2-(1-(5-fluoro-2-methylphenyl)-1H-pyrazolo[3,4-d]pyrimidin-4-yloxy)-3-(2-hydroxyethoxy)propanamide], the pEC50 was 6.03. `COCC[C@H](Oc1ncnc2c1cnn2-c1ccc(F)cc1F)C(=O)Nc1ccc(C)cn1` [Example 27, (S)-2-{[1-(2,4-difluorophenyl)-1H-pyrazolo[3,4-d]pyrimidin-4-yl]oxy}-4-methoxy-N-(5-methylpyridin-2-yl)butanamide] showed a pEC50 of 6.00. `N#Cc1cccc(Cl)c1-n1ncc2c(O[C@@H](CN3CC(O)C3)C(=O)Nc3ccc(F)cn3)ncnc21` [Example 242, (2S)-2-[1-(2-chloro-6-cyano-phenyl)pyrazolo[3,4-d]pyrimidin-4-yl]oxy-N-(5-fluoro-2-pyridyl)-3-(3-hydroxyazetidin-1-yl)propanamide] gave a pEC50 of 6.66. `O=C(Nc1ccc(Cl)cn1)[C@H](CN1CC(O)C1)Oc1ncnc2c1cnn2-c1ccccc1Cl` [Example 226, (2S)-2-[1-(2-chlorophenyl)pyrazolo[3,4-d]pyrimidin-4-yl]oxy-N-(5-chloro-2-pyridyl)-3-(3-hydroxyazetidin-1-yl)propanamide] gave a pEC50 of 6.89. Molecule `Cc1nc(NC(=O)[C@H](COC(C)C)Oc2ncnc3c2cnn3-c2ncccc2Cl)nn1C` [(2S)-2-[1-(3-chloro-2-pyridyl)pyrazolo[4,5-e]pyrimidin-4-yl]oxy-N-(1,5-dimethyl-1,2,4-triazol-3-yl)-3-isopropoxy-propanamide] has a pEC50 of under 4.00. Molecule `Cc1cnc(NC(=O)[C@H](COC2CCC2)Oc2ncnc3c2cnn3-c2ncc(Cl)cc2C(F)(F)F)cn1` [Example 138, (2S)-2-[1-[5-chloro-3-(trifluoromethyl)pyridin-2-yl]pyrazolo[4,5-e]pyrimidin-4-yl]oxy-3-cyclobutyloxy-N-(5-methylpyrazin-2-yl)propanamide] has a pEC50 of 6.09. With `Cc1ccc(NC(=O)[C@H](COC(C)C)Oc2ncnc3c2cnn3-c2ccccc2C(F)(F)F)nc1` [Example 160, (2S)-3-isopropoxy-N-(5-methylpyridin-2-yl)-2-(1-(2-(trifluoromethyl)phenyl)-1H-pyrazolo[3,4-d]pyrimidin-4-yloxy)propanamide] the pEC50 was 6.55. Work on `Cc1ccc(NC(=O)[C@H](COCCO)Oc2ncnc3c2cnn3-c2cccc(C#N)c2C)nc1` [Example 208, (2S)-2-(1-(3-cyano-2-methylphenyl)-1H-pyrazolo[3,4-d]pyrimidin-4-yloxy)-3-(2-hydroxyethoxy)-N-(5-methylpyridin-2-yl)propanamide] yielded a pEC50 of 5.55. In the case of `C[C@H](CO)OC[C@H](Oc1ncnc2c1cnn2-c1ccccc1Cl)C(=O)Nc1ccccn1` [Example 200, (2S)-2-(1-(2-chlorophenyl)-1H-pyrazolo[3,4-d]pyrimidin-4-yloxy)-3-((R)-1-hydroxypropan-2-yloxy)-N-(pyridin-2-yl)propanamide], the pEC50 was 6.36. Work on `COCC[C@@H](Oc1ncnc2c1cnn2-c1ccccn1)C(=O)Nc1ccc(C)cn1` [(R)-4-methoxy-N-(5-methyl-2-pyridyl)-2-[1-(2-pyridyl)pyrazolo[4,5-e]pyrimidin-4-yl]oxy-butanamide] yielded a pEC50 of under 4.00. Work on `COCCOCCC(Sc1ncnc2c1cnn2C(C)C)C(=O)Nc1nc(C)cs1` (stereo not shown) [Example 57, 2-[(1-Isopropyl-1H-pyrazolo[3,4-d]pyrimidin-4-yl)thio]-4-(2-methoxyethoxy)-N-(4-methyl-1,3-thiazol-2-yl)butanamide] yielded a pEC50 of 4.52. In the case of `COCC[C@@H](Oc1ncnc2c1cnn2-c1ccccc1Cl)C(=O)Nc1ccc(C)cn1` [Example 20, (R)-2-{[1-(2-Chlorophenyl)-1H-pyrazolo[3,4-d]pyrimidin-4-yl]oxy}-4-methoxy-N-(5-methylpyridin-2-yl)butanamide], the pEC50 was 5.03. Work on `O=C(Nc1ccccn1)[C@H](CN1CC(O)C1)Oc1ncnc2c1cnn2-c1c(Cl)cccc1Cl` [Example 233, (2S)-2-[1-(2,6-dichlorophenyl)pyrazolo[3,4-d]pyrimidin-4-yl]oxy-3-(3-hydroxyazetidin-1-yl)-N-(2-pyridyl)propanamide] yielded a pEC50 of 6.68. With `Cc1ccc(NC(=O)C(CCC(=O)O)Oc2ncnc3c2cnn3-c2ccccc2Cl)nc1` (stereo not shown) [Example 49, 4-{[1-(2-chlorophenyl)-1H-pyrazolo[3,4-d]pyrimidin-4-yl]oxy}-5-[(5-methylpyridin-2-yl)amino]-5-oxopentanoic acid] the pEC50 was 4.47. `CCCCC(Oc1ncnc2c1cnn2-c1ccccc1Cl)C(=O)Nc1ccc(C)cn1` (stereo not shown) [Example 38, 2-{[1-(2-chlorophenyl)-1H-pyrazolo[3,4-d]pyrimidin-4-yl]oxy}-N-(5-methylpyridin-2-yl)hexanamide] showed a pEC50 of 7.70. `Cc1ccc(NC(=O)[C@H](COC2CCC2)Oc2ncnc3c2cnn3-c2ncccc2Cl)nc1` [Example 158, (2S)-2-(1-(3-chloropyridin-2-yl)-1H-pyrazolo[3,4-d]pyrimidin-4-yloxy)-3-cyclobutoxy-N-(5-methylpyridin-2-yl)propanamide] showed a pEC50 of 6.82. Molecule `COCCC(Sc1ncnc2c1cnn2-c1ccccc1Cl)C(=O)Nc1nc(C)cs1` (stereo not shown) [Example 53, 2-{[1-(2-chlorophenyl)-1H-pyrazolo[3,4-d]pyrimidin-4-yl]thio}-4-methoxy-N-(4-methyl-1,3-thiazol-2-yl)butanamide] has a pEC50 of 6.11. Work on `C[C@H](CO)OC[C@H](Oc1ncnc2c1cnn2-c1c(Cl)cccc1C#N)C(=O)Nc1ccc(Cl)cn1` [Example 216, (2S)-2-[1-(2-chloro-6-cyano-phenyl)pyrazolo[4,5-e]pyrimidin-4-yl]oxy-N-(5-chloro-2-pyridyl)-3-[(1R)-2-hydroxy-1-methyl-ethoxy]propanamide] yielded a pEC50 of 6.79. `N#Cc1ccc(NC(=O)[C@H](CN2CC(O)C2)Oc2ncnc3c2cnn3-c2c(Cl)cccc2C#N)nc1` [Example 224, (2S)-2-[1-(2-chloro-6-cyano-phenyl)pyrazolo[3,4-d]pyrimidin-4-yl]oxy-N-(5-cyano-2-pyridyl)-3-(3-hydroxyazetidin-1-yl)propanamide] showed a pEC50 of 6.29. For `COCCC(Oc1ncnc2c1cnn2C(C)C)C(=O)Nc1ccc(C)cn1` (stereo not shown) [Example 76, 2-[(1-isopropyl-1H-pyrazolo[3,4-d]pyrimidin-4-yl)oxy]-4-methoxy-N-(5-methylpyridin-2-yl)butanamide], the pEC50 was at most 4.00. Molecule `COc1ccccc1-n1ncc2c(OC(CCS(C)(=O)=O)C(=O)Nc3ccc(C)cn3)ncnc21` (stereo not shown) [Example 10, 2-{[1-(2-methoxyphenyl)-1H-pyrazolo[3,4-d]pyrimidin-4-yl]oxy}-N-(5-methylpyridin-2-yl)-4-(methylsulfonyl)butanamide] has a pEC50 of 5.57. With `O=C(Nc1ccc(Cl)cn1)[C@H](CCCO)Oc1ncnc2c1cnn2-c1ncccc1Cl` [Example 212, (2S)—N-(5-chloropyridin-2-yl)-2-(1-(3-chloropyridin-2-yl)-1H-pyrazolo[3,4-d]pyrimidin-4-yloxy)-5-hydroxypentanamide] the pEC50 was 6.31. For `C[C@H](CO)OC[C@H](Oc1ncnc2c1cnn2-c1ncccc1Cl)C(=O)Nc1ccc(Cl)cn1` [Example 190, (2S)—N-(5-chloropyridin-2-yl)-2-(1-(3-chloropyridin-2-yl)-1H-pyrazolo[3,4-d]pyrimidin-4-yloxy)-3-((R)-1-hydroxypropan-2-yloxy)propanamide], the pEC50 was 6.43. For `Cc1cnc(NC(=O)[C@H](COC2CCC2)Oc2ncnc3c2cnn3-c2ccccc2Cl)cn1` [Example 156, (2S)-2-(1-(2-chlorophenyl)-1H-pyrazolo[3,4-d]pyrimidin-4-yloxy)-3-cyclobutoxy-N-(5-methylpyrazin-2-yl)propanamide], the pEC50 was 7.06. With `COC[C@H](Oc1ncnc2c1cnn2-c1ccccc1)C(=O)Nc1ccc(C)cn1` [Example 107, (S)-3-Methoxy-N-(5-methylpyridin-2-yl)-2-(1-phenyl-1H-pyrazolo[3,4-d]pyrimidin-4-yloxy)propanamide] the pEC50 was 5.44. For `O=C(Nc1ccccn1)[C@H](CN1CC(O)C1)Oc1ncnc2c1cnn2-c1ncccc1Cl` [Example 241, (2S)-2-[1-(3-chloro-2-pyridyl)pyrazolo[3,4-d]pyrimidin-4-yl]oxy-3-(3-hydroxyazetidin-1-yl)-N-(2-pyridyl)propanamide], the pEC50 was 6.46. Work on `COc1ccccc1-n1ncc2c(O[C@@H](CCS(C)(=O)=O)C(=O)Nc3ccc(C)cn3)ncnc21` [Example 12, (S)-2-{[1-(2-methoxyphenyl)-1H-pyrazolo[3,4-d]pyrimidin-4-yl]oxy}-N-(5-methylpyridin-2-yl)-4-(methylsulfonyl)butanamide] yielded a pEC50 of 5.62. `COCCC(Oc1ncnc2c1cnn2-c1ccccc1Cl)C(=O)Nc1ccc(C)cn1` (stereo not shown) [Example 19, 2-{[1-(2-Chlorophenyl)-1H-pyrazolo[3,4-d]pyrimidin-4-yl]oxy}-4-methoxy-N-(5-methylpyridin-2-yl)butanamide] was tested, and the pEC50 was 7.02.
